Data: the NIST ThermoML archive (doi:10.1021/je900596d)

Conditions: Vibrating tube method

FC(F)=C(F)C(F)(F)F [hexafluoropropene]
Conditions	mass density [kg/m3]
263.41 K, 162.7 kPa, Fluid (supercritical or subcritical phases)	11.79
263.41 K, 164.3 kPa, Fluid (supercritical or subcritical phases)	11.92
263.41 K, 165.5 kPa, Fluid (supercritical or subcritical phases)	12.02
263.41 K, 167 kPa, Fluid (supercritical or subcritical phases)	12.14
263.41 K, 168.6 kPa, Fluid (supercritical or subcritical phases)	12.22
263.41 K, 170.1 kPa, Fluid (supercritical or subcritical phases)	12.35
263.41 K, 171.8 kPa, Fluid (supercritical or subcritical phases)	12.46
263.41 K, 173.2 kPa, Fluid (supercritical or subcritical phases)	12.64
263.41 K, 174.8 kPa, Fluid (supercritical or subcritical phases)	12.73
263.41 K, 176.4 kPa, Fluid (supercritical or subcritical phases)	12.82
263.41 K, 177.9 kPa, Fluid (supercritical or subcritical phases)	13
263.41 K, 179.4 kPa, Fluid (supercritical or subcritical phases)	13.09
263.41 K, 180.9 kPa, Fluid (supercritical or subcritical phases)	13.22
263.41 K, 182.4 kPa, Fluid (supercritical or subcritical phases)	13.34
263.41 K, 183.9 kPa, Fluid (supercritical or subcritical phases)	13.46
263.41 K, 185.4 kPa, Fluid (supercritical or subcritical phases)	13.58
263.41 K, 186.9 kPa, Fluid (supercritical or subcritical phases)	13.66
263.41 K, 188.4 kPa, Fluid (supercritical or subcritical phases)	13.77
263.41 K, 189.9 kPa, Fluid (supercritical or subcritical phases)	13.87
263.41 K, 191.3 kPa, Fluid (supercritical or subcritical phases)	14.01
263.41 K, 192.8 kPa, Fluid (supercritical or subcritical phases)	14.11
263.41 K, 194.2 kPa, Fluid (supercritical or subcritical phases)	14.27
263.41 K, 195.7 kPa, Fluid (supercritical or subcritical phases)	14.37
263.41 K, 197.1 kPa, Fluid (supercritical or subcritical phases)	14.48
263.41 K, 198.5 kPa, Fluid (supercritical or subcritical phases)	14.63
263.41 K, 199.9 kPa, Fluid (supercritical or subcritical phases)	14.76
263.41 K, 201.3 kPa, Fluid (supercritical or subcritical phases)	14.81
263.41 K, 202.7 kPa, Fluid (supercritical or subcritical phases)	14.96
263.41 K, 204.1 kPa, Fluid (supercritical or subcritical phases)	15.01
263.41 K, 205.5 kPa, Fluid (supercritical or subcritical phases)	15.14
263.41 K, 206.9 kPa, Fluid (supercritical or subcritical phases)	15.26
263.41 K, 208.3 kPa, Fluid (supercritical or subcritical phases)	15.38
263.41 K, 209.6 kPa, Fluid (supercritical or subcritical phases)	15.49
263.41 K, 211 kPa, Fluid (supercritical or subcritical phases)	15.6
263.41 K, 212.3 kPa, Fluid (supercritical or subcritical phases)	15.71
263.41 K, 213.6 kPa, Fluid (supercritical or subcritical phases)	15.8
263.41 K, 214.9 kPa, Fluid (supercritical or subcritical phases)	15.93
263.41 K, 216.3 kPa, Fluid (supercritical or subcritical phases)	16.03
263.41 K, 217.6 kPa, Fluid (supercritical or subcritical phases)	16.16
263.41 K, 218.8 kPa, Fluid (supercritical or subcritical phases)	16.24
263.41 K, 220.2 kPa, Fluid (supercritical or subcritical phases)	16.31
263.41 K, 220.6 kPa, Fluid (supercritical or subcritical phases)	16.37
263.41 K, 221.1 kPa, Fluid (supercritical or subcritical phases)	16.43
263.41 K, 221.5 kPa, Fluid (supercritical or subcritical phases)	16.47
263.41 K, 222 kPa, Fluid (supercritical or subcritical phases)	16.48
263.41 K, 222.4 kPa, Fluid (supercritical or subcritical phases)	16.53
263.41 K, 223.2 kPa, Fluid (supercritical or subcritical phases)	16.59
263.41 K, 223.6 kPa, Fluid (supercritical or subcritical phases)	16.63
263.41 K, 224 kPa, Fluid (supercritical or subcritical phases)	16.66
263.41 K, 224.4 kPa, Fluid (supercritical or subcritical phases)	16.7
263.41 K, 225.4 kPa, Fluid (supercritical or subcritical phases)	16.76
263.41 K, 226.2 kPa, Fluid (supercritical or subcritical phases)	16.85
263.41 K, 226.6 kPa, Fluid (supercritical or subcritical phases)	16.88
263.41 K, 227 kPa, Fluid (supercritical or subcritical phases)	16.94
263.41 K, 227.9 kPa, Fluid (supercritical or subcritical phases)	16.98
263.41 K, 228.6 kPa, Fluid (supercritical or subcritical phases)	17.03
263.41 K, 229 kPa, Fluid (supercritical or subcritical phases)	17.07
263.41 K, 229.9 kPa, Fluid (supercritical or subcritical phases)	17.2
263.41 K, 230.7 kPa, Fluid (supercritical or subcritical phases)	17.24
263.41 K, 231.4 kPa, Fluid (supercritical or subcritical phases)	17.29
263.41 K, 231.9 kPa, Fluid (supercritical or subcritical phases)	17.35
263.41 K, 232.6 kPa, Fluid (supercritical or subcritical phases)	17.43
263.41 K, 233 kPa, Fluid (supercritical or subcritical phases)	17.48
263.41 K, 233.4 kPa, Fluid (supercritical or subcritical phases)	17.55
263.41 K, 234.2 kPa, Fluid (supercritical or subcritical phases)	17.65
263.41 K, 234.9 kPa, Fluid (supercritical or subcritical phases)	17.92
263.41 K, 235.5 kPa, Fluid (supercritical or subcritical phases)	18.45
263.41 K, 236 kPa, Fluid (supercritical or subcritical phases)	19
263.49 K, 230.2 kPa, Liquid	1462.58
263.49 K, 230.4 kPa, Liquid	1462.56
263.49 K, 231 kPa, Liquid	1462.62
263.49 K, 231.9 kPa, Liquid	1462.66
263.49 K, 232.1 kPa, Liquid	1462.66
263.49 K, 235.3 kPa, Liquid	1462.67
263.49 K, 242.7 kPa, Liquid	1462.66
263.49 K, 244.5 kPa, Liquid	1462.72
263.49 K, 250.6 kPa, Liquid	1462.76
263.49 K, 257.4 kPa, Liquid	1462.73
263.49 K, 258.3 kPa, Liquid	1462.79
263.49 K, 263.2 kPa, Liquid	1462.89
263.49 K, 273.9 kPa, Liquid	1462.91
263.49 K, 279.5 kPa, Liquid	1462.96
263.49 K, 288.7 kPa, Liquid	1462.98
263.49 K, 322.8 kPa, Liquid	1463.12
263.49 K, 327.2 kPa, Liquid	1463.13
263.49 K, 333.9 kPa, Liquid	1463.18
263.49 K, 337.8 kPa, Liquid	1463.15
263.49 K, 341.2 kPa, Liquid	1463.16
263.49 K, 345.9 kPa, Liquid	1463.25
263.49 K, 354.4 kPa, Liquid	1463.25
263.49 K, 361.4 kPa, Liquid	1463.34
263.49 K, 370.3 kPa, Liquid	1463.38
263.49 K, 388 kPa, Liquid	1463.45
263.49 K, 390.4 kPa, Liquid	1463.48
263.49 K, 401.9 kPa, Liquid	1463.54
263.49 K, 413.3 kPa, Liquid	1463.57
263.49 K, 431.1 kPa, Liquid	1463.65
263.49 K, 433.8 kPa, Liquid	1463.67
263.49 K, 447.7 kPa, Liquid	1463.79
263.49 K, 467.1 kPa, Liquid	1463.9
263.49 K, 484.1 kPa, Liquid	1463.94
263.49 K, 491.3 kPa, Liquid	1463.96
263.49 K, 502.2 kPa, Liquid	1464.1
263.49 K, 506.6 kPa, Liquid	1464.15
263.49 K, 518.2 kPa, Liquid	1464.18
263.49 K, 527.6 kPa, Liquid	1464.19
263.49 K, 529.9 kPa, Liquid	1464.3
263.49 K, 550.9 kPa, Liquid	1464.3
263.49 K, 554.1 kPa, Liquid	1464.39
263.49 K, 574.4 kPa, Liquid	1464.38
263.49 K, 584.9 kPa, Liquid	1464.43
263.49 K, 596.2 kPa, Liquid	1464.57
263.49 K, 625.2 kPa, Liquid	1464.59
263.49 K, 652.6 kPa, Liquid	1464.81
263.49 K, 673 kPa, Liquid	1464.96
263.49 K, 705.5 kPa, Liquid	1465.02
263.49 K, 728.3 kPa, Liquid	1465.2
263.49 K, 751.2 kPa, Liquid	1465.25
263.49 K, 772.1 kPa, Liquid	1465.47
263.49 K, 792.6 kPa, Liquid	1465.54
263.49 K, 813.9 kPa, Liquid	1465.54
263.49 K, 853.1 kPa, Liquid	1465.89
263.49 K, 888.3 kPa, Liquid	1465.94
263.49 K, 912.8 kPa, Liquid	1466.07
263.49 K, 939.3 kPa, Liquid	1466.24
263.49 K, 962.1 kPa, Liquid	1466.39
263.49 K, 982.9 kPa, Liquid	1466.54
263.49 K, 1031 kPa, Liquid	1466.76
263.49 K, 1064.1 kPa, Liquid	1466.9
263.49 K, 1098.2 kPa, Liquid	1467.05
263.49 K, 1132.8 kPa, Liquid	1467.28
263.49 K, 1165.8 kPa, Liquid	1467.41
263.49 K, 1201.1 kPa, Liquid	1467.57
263.49 K, 1250.1 kPa, Liquid	1467.92
